Measurements taken from patent publication US20110098177A1, “METHODS AND COMPOSITIONS OF PLANT MICRONUTRIENTS” (NOVUS INTERNATIONAL INC., priority 2006, published 2011).
“Also recorded” adds a separate entry of the source.

How the values were obtained:
Assay type in all cases: in vivo
[1] = system: Patriot bell pepper plants; experiment: Foliar nutrient concentration at 6 WAT, open-field bell pepper (Examples 7-10); settings: 6 WAT; open field; product rate as Table 17
Description: (§1) The following experiments were performed in open-field plots during the spring of 2008 at GCREC, Balm, University of Florida. Four products delivering Zn (BIOX-Z), Mn (BIOX-M), Cu (BIOX-Cu), and Fe (BIOX-Fe) were compared to other micronutrient supplement formulations in tomato and bell pepper plants.
(§2) The plot sizes for the tomato plants were 30-ft plots (15 plants per plot) and 15-ft plots were used for the bell pepper plants (30 plants per plot). Crop set-up, procedures and variables were as follows.
(§3) Transplants of ‘Tygress’ tomato plants and ‘Patriot’ bell pepper plants in the 4-true leaf stage (about 6 inches tall) were planted in raised beds in open-field plots. The cross-section of each raised bed was 28 inches wide at the top, 32 inches wide at the base, and 8 inches tall. Irrigation and non-micronutrient fertilizer were provided daily through two drip lines per bed (0.45 gal/100 ft bed/min) at recommended rates for tomato and bell pepper production in Florida. […] The height of the plants for each of the treatment groups was measured at 3 weeks after transplantation (WAT), just prior to treatment with the experimental foliar fertilizers.
(§4) All foliar fertilizers except BIOX-CM were applied to the various treatment groups at 3 weeks after transplantation (WAT) and again at 5 WAT. The BIOX-CM treatment was applied at 4 and 5 WAT. The working water volume was 60 gal/acre and a non-ionic surfactant (Ad-Spray 80) was added in the amount of 2 pints/100 gal water. All plots were sprayed with sprayers pressurized at 25 psi and the canopies of both crops were covered with the micronutrient solutions. Treated plots were isolated during foliar fertilizer application to avoid the cross-contamination of other treatments on adjoining plots.
(§5) Leaf samples were collected from the most recent mature leaves from each plant at 6 WAT (2 weeks after initial treatment). Foliar tissue analysis was performed by a commercial laboratory to determine the concentration of N, P, K, Mg, Ca, B, Zn, Mn, Fe, and Cu. Tomato marketable fruit weights were collected at 10 and 12 WAT, and the fruits were graded according to USDA standards. Pepper marketable fruit weights were determined beginning at 5 WAT over 5 weekly harvests. Fruit mineral analysis (N, P, K, Mg, Ca, B, Zn, Mn, Fe, and Cu) was performed on samples from the tomato harvest.
(§6) The experimental design was a randomized complete block design with 5 replications for each treatment. All comparison data were analyzed using a general linear model and the means of each treatment were separated with a Fisher's protected LSD test at the 5% significance level.

Tygress tomato plants [2] = experiment: Foliar nutrient concentration 2 weeks after treatment, greenhouse tomato (Examples 4-6); settings: Mn 2.0 lb/acre
Description: (§7) The following experiments were performed in a green house during the fall of 2008 and spring of 2009 at GCREC, Balm, University of Florida. Crop set-up, procedures and variables were as follows.
(§8) Transplants of Tygress' tomato plants were planted in 2-gallon pots filled with commercial planting medium with nutrient concentration of Fe, Zn, Mn, Cu being negligible and insufficient for crop growth. Irrigation and non-micronutrient fertilizer were provided daily through microsprinklers at recommended rates for tomato production in Florida. No pesticides were used. Treatments were as described in Tables 4, 5 and 6 below.
(§9) Treatments were applied at 5 WAT (weeks after transplanting) using a water volume of 200 mL/plant. A non-ionic surfactant was added. Foliar tissue analysis was performed at 3 and 7 WAT on the non-applied newest leaves. The concentrations of N, P, K, Mg, Ca, B, Zn, Mn, Fe, and Cu in the foliar tissue were determined from foliar analysis by a commercial laboratory at 2 weeks before treatment and again at 2 weeks after treatment.
(§10) Deionized water was used for foliar applications, and other nutrients were applied as appropriate under non-limiting conditions. Marketable fruit were collected three times during the growing season, starting at 10 WAT (5 weeks after the initial treatment). Tomato fruit was graded as extra-large, large and medium. Non-marketable fruit were harvested and number and weight recorded but not sized.
(§11) Experimental design was a randomized complete block design with 6 replications. Data were analyzed using a general linear model, and means were separated using an LSD test at the 5% significance level.

Tygress tomato plants [3] = experiment: Yields of tomato fruits, greenhouse (Examples 4-6)
Description: as §7, §8, §9, §10, §11

Tygress tomato plants [4] = experiment: Foliar nutrient concentration at 6 WAT, open-field tomato (Examples 7-10); settings: 6 WAT, open field
Description: as §1, §2, §3, §4, §5, §6

Tygress tomato plants [5] = experiment: Nutrient concentration of tomato fruits at 10 WAT, open field (Examples 7-10); settings: 10 WAT, open field
Description: as §1, §2, §3, §4, §5, §6

[6] = system: Patriot bell pepper plants; experiment: Marketable yield, open-field bell pepper (Examples 7-10); settings: open field; lb/acre/season: BIOX-Z 1.3, Cu 6.7, M 23.0, Fe 3.2, INC 4.0, INZ 0.6, CM 10.0, GZ 1.0, GF 4.0, EDZ 1.4, EDM 23.0
Description: as §1, §2, §3, §4, §5, §6

Tygress tomato plants [7] = experiment: Marketable yield, open-field tomato (Examples 7-10); settings: open field; lb/acre/season: BIOX-Z 1.3, Cu 6.7, M 23.0, Fe 3.2, INC 4.0, INZ 0.6, CM 10.0, GZ 1.0, GF 4.0, EDZ 1.4, EDM 23.0
Description: as §1, §2, §3, §4, §5, §6

EDTA chelated manganese [BIOX-EDM]
Foliar B concentration of bell pepper plants [1]: 64 ppm
Foliar Ca concentration of bell pepper plants [1]: 4.4%
Foliar Cu concentration of bell pepper plants [1]: 411 ppm
Foliar Fe concentration of bell pepper plants [1]: 138 ppm
Foliar K concentration of bell pepper plants [1]: 3.6%
Foliar Mg concentration of bell pepper plants [1]: 0.52%
Foliar Mn concentration of bell pepper plants [1]: 563 ppm
Foliar N concentration of bell pepper plants [1]: 4.4%
Foliar P concentration of bell pepper plants [1]: 0.28%
Foliar Zn concentration of bell pepper plants [1]: 67 ppm
B concentration in tomato leaves (Tygress tomato plants [2]; 2 weeks after Mn treatment): 22 ppm
Ca concentration in tomato leaves (Tygress tomato plants [2]; 2 weeks after Mn treatment): 0.6%
Cu concentration in tomato leaves (Tygress tomato plants [2]; 2 weeks after Mn treatment): 5 ppm
Fe concentration in tomato leaves (Tygress tomato plants [2]; 2 weeks after Mn treatment): 115 ppm
K concentration in tomato leaves (Tygress tomato plants [2]; 2 weeks after Mn treatment): 3.3%
Mg concentration in tomato leaves (Tygress tomato plants [2]; 2 weeks after Mn treatment): 0.3%
N concentration in tomato leaves (Tygress tomato plants [2]; 2 weeks after Mn treatment): 3.3%
P concentration in tomato leaves (Tygress tomato plants [2]; 2 weeks after Mn treatment): 0.5%
Zn concentration in tomato leaves (Tygress tomato plants [2]; 2 weeks after Mn treatment): 32 ppm
Foliar Mn concentration (Tygress tomato plants [2]; tomato leaves 2 weeks after Mn treatment): 78.5 a ppm
Marketable tomato yield compared with non-treated control (in words) (Tygress tomato plants [3]; BIOX-M at 1.23 lb/acre or more, BIOX-EDM at 2.0 lb/acre, Mn-sulfate at 1.0 lb/acre): significantly higher than the non-treated control
Marketable yield (Tygress tomato plants [3]; Mn 2.0 lb/acre, tomato fruits): 4.4 a lb/plant
Foliar Zn concentration of tomato plants, statement (Tygress tomato plants [4]): significant increase
Foliar concentration of K of tomato plants compared to control, statement (Tygress tomato plants [4]): significant increase
Foliar concentration of Mn of tomato plants, statement (Tygress tomato plants [4]): significant increase
Foliar concentration of P of tomato plants compared to control, statement (Tygress tomato plants [4]): significant decrease
Foliar B concentration of tomato plants (Tygress tomato plants [4]; product rate as Table 17): 60 ppm
Foliar Ca concentration of tomato plants (Tygress tomato plants [4]; product rate as Table 17): 2.2%
Foliar Cu concentration of tomato plants (Tygress tomato plants [4]; product rate as Table 17): 409 ppm
Foliar Fe concentration of tomato plants (Tygress tomato plants [4]; product rate as Table 17): 100 ppm
Foliar K concentration of tomato plants (Tygress tomato plants [4]; product rate as Table 17): 6.2 a %
Foliar Mg concentration of tomato plants (Tygress tomato plants [4]; product rate as Table 17): 0.82%
Foliar Mn concentration of tomato plants (Tygress tomato plants [4]; product rate as Table 17): 348 b ppm
Foliar N concentration of tomato plants (Tygress tomato plants [4]; product rate as Table 17): 4.9%
Foliar P concentration of tomato plants (Tygress tomato plants [4]; product rate as Table 17): 0.22 ab %
Foliar Zn concentration of tomato plants (Tygress tomato plants [4]; product rate as Table 17): 333 a ppm
Nutrient concentrations in tomato fruits, statement (Tygress tomato plants [5]): significant increases in micronutrient concentrations of Zn, Mn, Fe, and Cu; also recorded: highest Mn concentration in the resulting tomato fruit
B concentration of tomato fruits (Tygress tomato plants [5]; product rate as Table 17): 24 ppm
Ca concentration of tomato fruits (Tygress tomato plants [5]; product rate as Table 17): 0.2%
Cu concentration of tomato fruits (Tygress tomato plants [5]; product rate as Table 17): 27 a ppm
Fe concentration of tomato fruits (Tygress tomato plants [5]; product rate as Table 17): 110 a ppm
K concentration of tomato fruits (Tygress tomato plants [5]; product rate as Table 17): 8.6%
Mg concentration of tomato fruits (Tygress tomato plants [5]; product rate as Table 17): 0.39%
Mn concentration of tomato fruits (Tygress tomato plants [5]; product rate as Table 17): 60 a ppm
N concentration of tomato fruits (Tygress tomato plants [5]; product rate as Table 17): 4.3%
P concentration of tomato fruits (Tygress tomato plants [5]; product rate as Table 17): 0.63%
Zn concentration of tomato fruits (Tygress tomato plants [5]; product rate as Table 17): 939 a ppm
Marketable yield, Bell Pepper [6]: 7.6 ton/acre
Marketable yield, Tomato (Tygress tomato plants [7]): 14.6 b ton/acre
